The values below are quoted from earlier work in US11439617B2, “Polymeric compositions of monomethyl fumarate and their use in treating relapsing remitting multiple sclerosis and psoriasis” (priority 2017, dated 2022).

Counter-ions that a name gives are not always drawn.

For this data set the following is noted: in vivo.

As to `COC(=O)/C=C/C(=O)O` [MMF, monomethyl fumarate], the Tmax result is “about 2.5 hours” and the half-life in circulation is 36 h.
